Reference: ChEMBL document CHEMBL1687760, “Secondary integrase resistance mutations found in HIV-1 minority quasispecies in integrase therapy-naive patients have little or no effect on susceptibility to integrase inhibitors” (Antimicrob Agents Chemother, 2010)

Experiments:
Format in all cases: functional
[1] = test system: Human immunodeficiency virus 1; assay: Antiviral activity against Human immunodeficiency virus 1 3B harboring integrase M154I mutant infected in human MT4 cells assessed as inhibition of virus induced cytopathic effect relative to wild type HIV1
[2] = test system: Human immunodeficiency virus 1; assay: Antiviral activity against Human immunodeficiency virus 1 clone 17 harboring integrase S17N, T124N, T125A, M154I, S195C mutant gene relative to wild type HIV1
[3] = test system: Human immunodeficiency virus 1; assay: Antiviral activity against Human immunodeficiency virus 1 3B harboring integrase E92Q mutant infected in human MT4 cells assessed as inhibition of virus induced cytopathic effect relative to wild type HIV1
[4] = test system: Human immunodeficiency virus 1; assay: Antiviral activity against Human immunodeficiency virus 1 clone 4 harboring integrase R20K, A23V, T124N, I141V, G193E, V201I, T206S, I220V, D279G mutant gene relative to wild type HIV1
[5] = test system: Human immunodeficiency virus 1; assay: Antiviral activity against Human immunodeficiency virus 1 clone 15 harboring integrase S17N, I84I, T124N, T125A, M154I, S195C mutant gene relative to wild type HIV1
[6] = test system: Human immunodeficiency virus 1; assay: Antiviral activity against Human immunodeficiency virus 1 clone 7 harboring integrase E11D, S17T, L45V, M50T, I72V, L74I, K111T, T125A relative to wild type HIV1
[7] = test system: Human immunodeficiency virus 1; assay: Antiviral activity against Human immunodeficiency virus 1 clone 16 harboring integrase E11D, S17T, L45V, M50T, I72V, L74I, K111T, T125A relative to wild type HIV1
[8] = test system: Human immunodeficiency virus 1; assay: Antiviral activity against Human immunodeficiency virus 1 clone 8 harboring integrase E11D, S17T, L45V, M50T, S57G, L74I, K111T, S119G, T125A relative to wild type HIV1
[9] = test system: Human immunodeficiency virus 1; assay: Antiviral activity against Human immunodeficiency virus 1 clone 18 harboring integrase S17N, I84I, T124N, T125A, M154I, S195C, V201I, S230G mutant gene relative to wild type HIV1
[10] = test system: Human immunodeficiency virus 1; assay: Antiviral activity against Human immunodeficiency virus 1 clone 19 harboring integrase E11D, S17T, L45V, M50T, I72V, L74I, T97A, K111T, S119G, T125A relative to wild type HIV1
[11] = test system: Human immunodeficiency virus 1; assay: Antiviral activity against Human immunodeficiency virus 1 clone 9 harboring integrase E11D, S17T, L45V, M50T, I72V, L74I, K111T, S119G, relative to wild type HIV1
[12] = test system: Human immunodeficiency virus 1; assay: Antiviral activity against Human immunodeficiency virus 1 clone 11 harboring integrase S17N, I84I, T124N, T125A, M154I, S195C mutant gene relative to wild type HIV1
[13] = test system: Human immunodeficiency virus 1; assay: Antiviral activity against Human immunodeficiency virus 1 3B harboring integrase V201I mutant infected in human MT4 cells assessed as inhibition of virus induced cytopathic effect relative to wild type HIV1
[14] = test system: Human immunodeficiency virus 1; assay: Antiviral activity against Human immunodeficiency virus 1 clone 4 harboring integrase S17N, S57G, I84I, T124N, T125A, M154I, S195C mutant gene relative to wild type HIV1
[15] = test system: Human immunodeficiency virus 1; assay: Antiviral activity against Human immunodeficiency virus 1 3B harboring integrase T206S mutant infected in human MT4 cells assessed as inhibition of virus induced cytopathic effect relative to wild type HIV1
[16] = test system: Human immunodeficiency virus 1; assay: Antiviral activity against Human immunodeficiency virus 1 3B harboring integrase S119G mutant infected in human MT4 cells assessed as inhibition of virus induced cytopathic effect relative to wild type HIV1
[17] = test system: Human immunodeficiency virus 1; assay: Antiviral activity against Human immunodeficiency virus 1 3B harboring integrase V151I mutant infected in human MT4 cells assessed as inhibition of virus induced cytopathic effect relative to wild type HIV1
[18] = test system: Human immunodeficiency virus 1; assay: Antiviral activity against Human immunodeficiency virus 1 3B harboring integrase S230N mutant infected in human MT4 cells assessed as inhibition of virus induced cytopathic effect relative to wild type HIV1
[19] = test system: Human immunodeficiency virus 1; assay: Antiviral activity against Human immunodeficiency virus 1 clone 2 harboring integrase S17N, I84I, T124N, T125A, M154I, E157K, S195C mutant gene relative to wild type HIV1
[20] = test system: Human immunodeficiency virus 1; assay: Antiviral activity against Human immunodeficiency virus 1 clone 3 harboring integrase R20K, A23V, T124N, I141V, G193E, V201I, T206S, I220V, M275Vmutant gene relative to wild type HIV1
[21] = test system: Human immunodeficiency virus 1; assay: Antiviral activity against Human immunodeficiency virus 1 clone 13 harboring integrase S17N, T124N, T125A, G140S, M154I, S195C mutant gene relative to wild type HIV1
[22] = test system: Human immunodeficiency virus 1; assay: Antiviral activity against Human immunodeficiency virus 1 3B harboring integrase L74I mutant infected in human MT4 cells assessed as inhibition of virus induced cytopathic effect relative to wild type HIV1
[23] = test system: Human immunodeficiency virus 1; assay: Antiviral activity against Human immunodeficiency virus 1 clone 13 harboring integrase E11D, S17T, L45V, M50T, I72V, L74I, K111T, S119G, T125A relative to wild type HIV1
[24] = test system: Human immunodeficiency virus 1; assay: Antiviral activity against Human immunodeficiency virus 1 3B harboring integrase E157Q mutant infected in human MT4 cells assessed as inhibition of virus induced cytopathic effect relative to wild type HIV1

SMILES	fold change (FC) [1]	fold change (FC) [3]	fold change (FC) [4]	fold change (FC) [5]	fold change (FC) [6]	fold change (FC) [7]	fold change (FC) [9]	fold change (FC) [10]	fold change (FC) [16]	fold change (FC) [19]	fold change (FC) [20]	fold change (FC) [21]	other results
COc1cc2c(cc1Cc1cccc(Cl)c1F)c(=O)c(C(=O)O)cn2[C@H](CO)C(C)C [ELVITEGRAVIR]	1	20.8	0.7	0.6	2.7	0.5	0.8	2.5	1	1.1	0.7	5.6	fold change (FC) [2]: 1; fold change (FC) [8]: 0.8; fold change (FC) [11]: 1; fold change (FC) [12]: 0.9; fold change (FC) [13]: 0.9; fold change (FC) [14]: 1.4; fold change (FC) [15]: 1.1; fold change (FC) [17]: 0.6; fold change (FC) [18]: 0.8
Cc1nnc(C(=O)NC(C)(C)c2nc(C(=O)NCc3ccc(F)cc3)c(O)c(=O)n2C)o1 [RALTEGRAVIR]	0.8	3.8	0.2	0.7	1.5	1.2	1.3	1.7	1.1	1.1	0.5	2.4	fold change (FC) [22]: 1.2; fold change (FC) [23]: 2; fold change (FC) [24]: 1.2
